For six compounds, TGI results are on record in PubChem BioAssay (NCI).

Among the test systems are CAKI-1 renal; UACC-257 melanoma; MDA-MB-231 breast; COLO 205 colon; HT29 colon; RPMI-8226 leukemia; K-562 leukemia; SK-MEL-5 melanoma; CCRF-CEM leukemia; OVCAR-8 ovarian; SN12C renal; U251 CNS; MALME-3M melanoma; A549 NSCLC; SK-MEL-2 melanoma.
Holding throughout (assay): DTP human tumour cell line panel, 48 h

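Results reflect a 48-hour exposure of cells in 96-well plates to compound at five concentrations. TGI denotes the concentration required for complete inhibition of growth.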

As for `COc1ccc(N2C(=O)/C(=C\c3cc(OC)c(OC)c(OC)c3)SC2c2ccccc2)cc1` (stereo not given), the total growth inhibition concentration (TGI) in the test on CAKI-1 renal, in the test on UACC-257 melanoma, in the test with MDA-MB-231 breast, with COLO 205 colon, in the test with HT29 colon and with RPMI-8226 leukemia was more than 100 µM each time. Moreover, the concentration for total growth inhibition (TGI) with K-562 leukemia, in the test on SK-MEL-5 melanoma, in the test with CCRF-CEM leukemia, in the test on OVCAR-8 ovarian, with SN12C renal and in the test with U251 CNS was more than 100 µM each time. For the same compound, the TGI with MALME-3M melanoma, in the test on A549 NSCLC and with SK-MEL-2 melanoma was more than 100 µM throughout.

For the compound `COc1cc(O)c2c(=O)c(O)c(-c3ccc(O)c(OC)c3)oc2c1`, the TGI is more than 100 µM in the test with CAKI-1 renal; more than 100 µM with UACC-257 melanoma; more than 100 µM with MDA-MB-231 breast; more than 86 µM in the test with COLO 205 colon; more than 100 µM in the test on HT29 colon; more than 100 µM with RPMI-8226 leukemia. Moreover, the TGI in the test on K-562 leukemia was 10.5 µM; in the test on SK-MEL-5 melanoma, more than 34.9 µM; with CCRF-CEM leukemia it was more than 21.9 µM; in the test on OVCAR-8 ovarian, more than 100 µM; in the test with SN12C renal, more than 100 µM; with U251 CNS, 18.1 µM. Moreover, the TGI in the test with MALME-3M melanoma, with A549 NSCLC and in the test on SK-MEL-2 melanoma was more than 100 µM each time.

Turning to `COC(=O)[C@]1(NC(=O)c2ccccc2)C[C@H]1C=O`, the TGI in the test with CAKI-1 renal, in the test on UACC-257 melanoma, in the test with MDA-MB-231 breast, in the test on COLO 205 colon, in the test on HT29 colon and in the test with RPMI-8226 leukemia was more than 100 µM throughout. Further, the TGI with K-562 leukemia is more than 100 µM; in the test on SK-MEL-5 melanoma it was more than 100 µM; with CCRF-CEM leukemia it was 51.5 µM; in the test on OVCAR-8 ovarian, more than 100 µM; in the test on SN12C renal, more than 100 µM; in the test on U251 CNS it was more than 100 µM. The concentration for total growth inhibition (TGI) in the test with MALME-3M melanoma, with A549 NSCLC and with SK-MEL-2 melanoma was more than 100 µM throughout.

For `COc1ccc(OC)c(N(CN2C(=O)CCC2C(=O)O)C(C)=O)c1` (stereo not given), the concentration for total growth inhibition (TGI) with CAKI-1 renal, in the test on UACC-257 melanoma, in the test on MDA-MB-231 breast, in the test on COLO 205 colon, in the test on HT29 colon and in the test with RPMI-8226 leukemia was more than 100 µM throughout. For the same compound, the TGI with K-562 leukemia, with SK-MEL-5 melanoma, with CCRF-CEM leukemia, with OVCAR-8 ovarian, in the test on SN12C renal and in the test with U251 CNS was more than 100 µM throughout. Besides, the TGI in the test on MALME-3M melanoma, in the test with A549 NSCLC and with SK-MEL-2 melanoma was more than 100 µM throughout.

`NC1CC(=O)c2c1sc(Cl)c2Cl` (stereo not given): the concentration for total growth inhibition (TGI) in the test with CAKI-1 renal, in the test on UACC-257 melanoma, in the test on MDA-MB-231 breast, in the test on COLO 205 colon, in the test on HT29 colon and in the test on RPMI-8226 leukemia was more than 100 µM each time. The TGI with K-562 leukemia, in the test on SK-MEL-5 melanoma, in the test on CCRF-CEM leukemia, in the test on OVCAR-8 ovarian, in the test with SN12C renal and in the test with U251 CNS was more than 100 µM each time. For the same compound, the TGI with MALME-3M melanoma, in the test with A549 NSCLC and in the test with SK-MEL-2 melanoma was more than 100 µM each time.

In the case of `C=C1CC(c2ccc(OCCCN3C(=O)c4ccccc4C3=O)cc2)OC1=O` (stereo not given), the concentration for total growth inhibition (TGI) in the test with CAKI-1 renal was found to be 6.54 µM; with UACC-257 melanoma, 7.55 µM; in the test on MDA-MB-231 breast, 13 µM; in the test with COLO 205 colon, 6.37 µM; in the test on HT29 colon, 9.24 µM; with RPMI-8226 leukemia, 3.68 µM. Further, the concentration for total growth inhibition (TGI) in the test with K-562 leukemia came to 3.16 µM; with SK-MEL-5 melanoma, 20.4 µM; in the test on CCRF-CEM leukemia it was 4.56 µM; in the test on OVCAR-8 ovarian, 9.35 µM; with SN12C renal, 12.3 µM; in the test with U251 CNS, 10.7 µM. The concentration for total growth inhibition (TGI) is 7.27 µM in the test with MALME-3M melanoma, 39.2 µM in the test with A549 NSCLC and 4.98 µM with SK-MEL-2 melanoma.
